Test [1] addresses CREBBP bromodomain (His-CREBBP(1081-1197)) (Homo sapiens (Human), UniProt Q92793). Kind of test: AlphaScreen in-vitro binding assay for CREBBP. Particulars: single determination or n ≧ 2 independent determinations, read-out: Biochemical IC50 CREBBP. In outline: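 Detection used nickel-chelate acceptor plus streptavidin donor AlphaScreen beads, 1 h room temperature. Percent inhibition fitted by non-linear regression to IC50.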
For orientation: In Alpha technology, singlet oxygen from a donor bead excites a nearby acceptor bead.

Another test deals with THP-1 cells. The test is described as follows: Cell growth inhibition assay (CellTiter-Glo), THP-1.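 For all read-outs here: viability read as cellular ATP luminescence after 4 days, 3-fold dilution series from 10 µM, DMSO vehicle-treated cells taken as 100%, cell-free medium wells as −100%.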 Particulars: for GI50: Homo sapiens, THP-1, read-out: THP-1 GI50; for THP-1 TGI: THP-1 cells, total growth inhibition, CellTiter-Glo. A general note: In ATP-based viability assays light output follows the ATP content of the culture.
The test system of a further test is MV-4-11 cells. Kind of test: Cell growth inhibition assay (CellTiter-Glo), MV-4-11.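 For all read-outs here: cellular ATP luminescence after 4 days, 3-fold dilution series from 10 µM top dose, vehicle (0.1% DMSO) set to 100%, cell-free medium set to −100%, day 0 corrected.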 The settings on record: for GI50: Homo sapiens, MV4-11, read-out: MV-4-11 GI50; for MV-4-11 TGI: MV-4-11 cells, total growth inhibition, CellTiter-Glo.
For another test, the system named is K-562 cells. The test is described as follows: Cell growth inhibition assay (CellTiter-Glo), K-562.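 For all read-outs here: cellular ATP measured by luminescence after 4 days of exposure, 3-fold dilution series from 10 µM, DMSO vehicle-treated cells define 100%, cell-free medium wells −100%.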 The settings on record: for GI50: Homo sapiens, K562, read-out: K-562 GI50; for K-562 TGI: K-562 cells, total growth inhibition, CellTiter-Glo.
A further test addresses BRD3 (His-Brd3(20-477)) (Homo sapiens (Human), UniProt Q15059). The test is described as follows: TR-FRET in-vitro binding assay for BRD3. The settings on record: single determination or n ≧ 2 independent determinations, read-out: Biochemical IC50 BRD3. In outline: (§1)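 His-tagged BRD2, BRD3 and BRD4 fragments tested by TR-FRET at 8 compound concentrations, with DMSO stocks at 10 mM. Read on EnVision after 35 min incubation at 30° C.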

The target of the next test is BRD2 (His-Brd2(60-472)) (Homo sapiens (Human), UniProt P25440). Kind of test: TR-FRET in-vitro binding assay for BRD2. Particulars: single determination or n ≧ 2 independent determinations, read-out: Biochemical IC50 BRD2. The procedure: TR-FRET In-Vitro Binding Assays for BRD2, BRD3, and BRD4:
All assays were performed in 384 well microtiter plates. Each assay plate contained 8-point serial dilutions for 40 test compounds, plus 16 high- and 16 low controls. Liquid handling and incubation steps were done on an Innovadyne Nanodrop Express equipped with a robotic arm (Thermo CatX, Perkin Elmer/Caliper Twister II) and an incubator (Liconic STX40, Thermo Cytomat 2C450). The assay plates were prepared by addition of 50 nl per well of compound solution in 90% DMSO HummingBird nanodispenser (Zinsser Analytic). […] Reactions were incubated at 30° C. for 35 minutes. […] After 35 minutes incubation at 30° C., plates were measured in a Perkin Elmer EnVision multilabel reader.
Preparation of Compound Dilutions
Test compounds were dissolved in DMSO (10 mM) and transferred into 1.4 mL flat bottom or V-shaped Matrix tubes carrying a unique 2D matrix. The stock solutions were stored at […] if not used immediately. For the test procedure the vials were defrosted and identified by a scanner whereby a working sheet was generated that guided the subsequent working steps.
Compound dilutions were made in 96 well plates. This format enabled the assay of maximally 40 individual test compounds at 8 concentrations (single points) including 4 reference compounds, if desired (known BET inhibitors from the prior art, for this and other assays of the type disclosed herein). The dilution protocol included the production of “pre-dilution plates”, “master plates” and “assay plates”.
Pre-Dilution Plates: 96 polypropylene well plates were used as pre-dilution plates. A total of 4 pre-dilution plates were prepared including 10 test compounds each on the plate positions A1-A10, one standard compound at A11 and one DMSO control at A12. All dilution steps were done on a HamiltonSTAR robot.
These plates were used directly for the assay which was performed in a total volume of 13.55 μL.

The target in a further test is BRD4 (His-Brd4(44-477)) (Homo sapiens (Human), UniProt O60885). Kind of test: TR-FRET in-vitro binding assay for BRD4. The settings on record: single determination or n ≧ 2 independent determinations, read-out: Biochemical IC50 BRD4. In outline:
as §1
On the technique in general: TR-FRET usually uses a lanthanide donor and a delayed reading to cut background.

For orientation: IC50 means the concentration at which inhibition is half-maximal. In general, GI50 refers to the concentration that inhibits growth by half.

The structures appear in SMILES notation. Bounds are passed on as bounds.

Chain of CREBBP bromodomain (His-CREBBP(1081-1197)) (Q92793 1081-1197): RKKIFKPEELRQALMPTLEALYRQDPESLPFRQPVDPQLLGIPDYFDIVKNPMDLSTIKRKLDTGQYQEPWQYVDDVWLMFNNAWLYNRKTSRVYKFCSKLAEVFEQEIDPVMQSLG
Chain of BRD3 (His-Brd3(20-477)) (Q15059 20-477): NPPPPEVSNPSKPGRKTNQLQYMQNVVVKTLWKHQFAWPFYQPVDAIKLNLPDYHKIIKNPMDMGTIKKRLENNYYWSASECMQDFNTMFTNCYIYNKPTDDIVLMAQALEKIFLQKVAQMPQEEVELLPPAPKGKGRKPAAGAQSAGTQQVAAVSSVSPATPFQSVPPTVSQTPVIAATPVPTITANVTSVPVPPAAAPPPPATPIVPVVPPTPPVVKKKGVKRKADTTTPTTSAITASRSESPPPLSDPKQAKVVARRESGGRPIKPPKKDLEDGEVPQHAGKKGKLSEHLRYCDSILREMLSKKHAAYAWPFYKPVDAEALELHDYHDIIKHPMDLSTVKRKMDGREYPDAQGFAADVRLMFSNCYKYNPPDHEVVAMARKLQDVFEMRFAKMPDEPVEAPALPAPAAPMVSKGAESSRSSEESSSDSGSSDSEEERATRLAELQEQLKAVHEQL
Chain of BRD2 (His-Brd2(60-472)) (P25440 60-472): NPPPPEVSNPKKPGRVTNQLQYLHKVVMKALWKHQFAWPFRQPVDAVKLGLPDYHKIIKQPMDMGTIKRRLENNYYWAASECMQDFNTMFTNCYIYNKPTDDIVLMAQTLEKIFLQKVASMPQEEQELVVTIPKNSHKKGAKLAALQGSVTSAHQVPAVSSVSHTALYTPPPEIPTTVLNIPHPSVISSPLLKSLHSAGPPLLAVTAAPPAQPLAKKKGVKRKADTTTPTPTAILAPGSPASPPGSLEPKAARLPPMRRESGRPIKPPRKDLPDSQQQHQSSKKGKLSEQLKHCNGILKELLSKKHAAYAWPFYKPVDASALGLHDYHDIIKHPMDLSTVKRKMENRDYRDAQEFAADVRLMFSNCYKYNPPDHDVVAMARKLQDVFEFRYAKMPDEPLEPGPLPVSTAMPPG

Consider `Cc1cc(N2C(=O)c3nc(C4=CCOC4)n(C(C)C)c3[C@H]2c2ccc(Cl)cc2)cn2c(C)nnc12` [Example 48, (R)-6-(4-chlorophenyl)-2-(2,5-dihydrofuran-3-yl)-5-(3,8-dimethyl-[1,2,4]triazolo[4,3-a]pyridin-6-yl)-1-isopropyl-5,6-dihydropyrrolo[3,4-d]imidazol-4(1H)-one], for which the IC50 in test [1] was found to be 3050 nM; on BRD3 (His-Brd3(20-477)), 33 nM; at BRD2 (His-Brd2(60-472)) it was 41 nM; on BRD4 (His-Brd4(44-477)), 27 nM. The GI50 in the test on THP-1 cells worked out at 56.5 nM; with MV-4-11 cells it was 10.5 nM; in the test with K-562 cells, 351 nM. Besides, the “THP-1 TGI” value in the test with THP-1 cells was determined as 109 nM. In addition, the “MV-4-11 TGI” value in the test with MV-4-11 cells is 24.5 nM. Besides, the “K-562 TGI” value with K-562 cells was greater than 10000 nM.

For `Cc1cc(N2C(=O)c3nc(C4=CCNCC4)n(C(C)C)c3C2c2ccc(Cl)cc2)cn2c(C)nnc12` (stereo not shown) [Example 49, 6-(4-Chlorophenyl)-5-(3,8-dimethyl-[1,2,4]triazolo[4,3-a]pyridin-6-yl)-1-isopropyl-2-(1,2,3,6-tetrahydropyridin-4-yl)-5,6-dihydropyrrolo[3,4-d]imidazol-4(1H)-one], the IC50 in test [1] is 2200 nM; on BRD3 (His-Brd3(20-477)), 42 nM; on BRD2 (His-Brd2(60-472)) it was 56 nM; at BRD4 (His-Brd4(44-477)) it was 35 nM. The GI50 with THP-1 cells was 989 nM; in the test with MV-4-11 cells, 191 nM; with K-562 cells it was 2040 nM. Also, in the test on THP-1 cells, the “THP-1 TGI” value worked out at 1470 nM. In addition, the “MV-4-11 TGI” value in the test on MV-4-11 cells worked out at 320 nM. The “K-562 TGI” value in the test with K-562 cells was greater than 10000 nM.

Consider `Cc1cc(N2C(=O)c3nc(C4=CCN(C)CC4)n(C(C)C)c3C2c2ccc(Cl)cc2)cn2c(C)nnc12` (stereo not shown) [Example 50, 6-(4-Chlorophenyl)-5-(3,8-dimethyl-[1,2,4]triazolo[4,3-a]pyridin-6-yl)-1-isopropyl-2-(1-methyl-1,2,3,6-tetrahydropyridin-4-yl)-5,6-dihydropyrrolo[3,4-d]imidazol-4(1H)-one], for which the IC50 in test [1] was 5400 nM; on BRD3 (His-Brd3(20-477)), 23.5 nM; at BRD2 (His-Brd2(60-472)) it was 41 nM; on BRD4 (His-Brd4(44-477)) it was 27 nM. The GI50 with THP-1 cells turned out to be 233 nM; in the test with MV-4-11 cells, 28.8 nM; in the test on K-562 cells it was 575 nM. Further, the “THP-1 TGI” value in the test on THP-1 cells came to 495 nM. In the test with MV-4-11 cells, the “MV-4-11 TGI” value was found to be 57.1 nM. In addition, in the test with K-562 cells, the “K-562 TGI” value was greater than 10000 nM.

As for `Cc1cc(N2C(=O)c3nc(C4=CC(C)(C)NC(C)(C)C4)n(C(C)C)c3C2c2ccc(Cl)cc2)cn2c(C)nnc12` (stereo not shown) [Example 51, 6-(4-Chlorophenyl)-5-(3,8-dimethyl-[1,2,4]triazolo[4,3-a]pyridin-6-yl)-1-isopropyl-2-(2,2,6,6-tetramethyl-1,2,3,6-tetrahydropyridin-4-yl)-5,6-dihydropyrrolo[3,4-d]imidazol-4(1H)-one], the IC50 was 6400 nM in test [1], 25 nM on BRD3 (His-Brd3(20-477)), 40 nM at BRD2 (His-Brd2(60-472)) and 19.5 nM on BRD4 (His-Brd4(44-477)). Moreover, the GI50 in the test with THP-1 cells is 212 nM; with MV-4-11 cells it was 22.4 nM; in the test on K-562 cells, 439 nM. Also, in the test with THP-1 cells, the “THP-1 TGI” value amounted to 612 nM. In addition, in the test on MV-4-11 cells, the “MV-4-11 TGI” value is 47.9 nM. For the same molecule, in the test with K-562 cells, the “K-562 TGI” value was greater than 10000 nM.

`Cc1cc(N2C(=O)c3nc(C)n(C(C)C)c3C2c2ccc(Cl)cc2)cn2c(C)nnc12` (stereo not shown) [Example 58, 6-(4-chlorophenyl)-5-(3,8-dimethyl-[1,2,4]triazolo[4,3-a]pyridin-6-yl)-1-isopropyl-2-methyl-5,6-dihydropyrrolo[3,4-d]imidazol-4(1H)-one]: the IC50 in test [1] was 10400 nM; on BRD3 (His-Brd3(20-477)), 38 nM; at BRD2 (His-Brd2(60-472)) it was 78 nM; on BRD4 (His-Brd4(44-477)) it was 55 nM. Also, the GI50 was determined as 99.5 nM in the test on THP-1 cells, 23.8 nM in the test on MV-4-11 cells and 366 nM with K-562 cells. Further, the “THP-1 TGI” value with THP-1 cells was found to be 207.5 nM. Besides, the “MV-4-11 TGI” value in the test with MV-4-11 cells is 48.75 nM. For the same molecule, in the test with K-562 cells, the “K-562 TGI” value is greater than 10000 nM.

Consider `Cc1cc(N2C(=O)c3nc(C)n(C(C)C)c3[C@H]2c2ccc(Cl)cc2)cn2c(C)nnc12` [Example 59, (R)-6-(4-chlorophenyl)-5-(3,8-dimethyl-[1,2,4]triazolo[4,3-a]pyridin-6-yl)-1-isopropyl-2-methyl-5,6-dihydropyrrolo[3,4-d]imidazol-4(1H)-one], for which the IC50 in test [1] came out at 5700 nM; on BRD3 (His-Brd3(20-477)), 34 nM; at BRD2 (His-Brd2(60-472)), 48 nM; at BRD4 (His-Brd4(44-477)), 30 nM. In addition, the values for the GI50 in the test with THP-1 cells, in the test on MV-4-11 cells and with K-562 cells were 41 nM, 17.8 nM and 117 nM, respectively. Further, the “THP-1 TGI” value in the test with THP-1 cells was determined as 114 nM. For the same molecule, the “MV-4-11 TGI” value in the test with MV-4-11 cells was 34.9 nM. Further, the “K-562 TGI” value in the test on K-562 cells was greater than 10000 nM.

For the molecule `COc1cc(N2C(=O)c3nc(C4=CCOCC4)n(C(C)C)c3C2c2ccc(Cl)cc2)cc2c1nnn2C` (stereo not shown) [Example 60], the IC50 in test [1] amounted to 21900 nM; at BRD3 (His-Brd3(20-477)), 53.5 nM; at BRD2 (His-Brd2(60-472)), 96 nM; at BRD4 (His-Brd4(44-477)), 31.5 nM. The results for the GI50 in the test with THP-1 cells, with MV-4-11 cells and in the test with K-562 cells were 69 nM, 34 nM and 280 nM, respectively. Besides, the “THP-1 TGI” value in the test with THP-1 cells came to 132 nM. The “MV-4-11 TGI” value in the test on MV-4-11 cells amounted to 63.1 nM. The “K-562 TGI” value in the test on K-562 cells was greater than 10000 nM.

With `COc1cc(N2C(=O)c3nc(C4=CCOCC4)n(C(C)C)c3[C@H]2c2ccc(Cl)cc2)cc2c1nnn2C` [Example 61], the IC50 turned out to be 17900 nM in test [1], 51.5 nM on BRD3 (His-Brd3(20-477)), 100 nM on BRD2 (His-Brd2(60-472)) and 24.5 nM on BRD4 (His-Brd4(44-477)). Further, the GI50 stood at 65.4 nM with THP-1 cells, 28.2 nM in the test on MV-4-11 cells and 116 nM in the test with K-562 cells. The “THP-1 TGI” value in the test on THP-1 cells came out at 149 nM. Besides, the “MV-4-11 TGI” value in the test on MV-4-11 cells was determined as 55.1 nM. In addition, in the test on K-562 cells, the “K-562 TGI” value is greater than 10000 nM.

For the molecule `COc1cc(N2C(=O)c3nc(C4=CCCN(C)C4)n(C(C)C)c3C2c2ccc(Cl)cc2)cc2c1nnn2C` (stereo not shown) [Example 62], the IC50 is 31400 nM in test [1], 86 nM at BRD3 (His-Brd3(20-477)), 150 nM at BRD2 (His-Brd2(60-472)) and 120 nM on BRD4 (His-Brd4(44-477)). The GI50 is 164 nM with THP-1 cells, 41.9 nM in the test on MV-4-11 cells and 391 nM in the test with K-562 cells. In addition, the “THP-1 TGI” value with THP-1 cells was 331.5 nM. Also, the “MV-4-11 TGI” value with MV-4-11 cells stood at 80.25 nM. Further, the “K-562 TGI” value in the test with K-562 cells was greater than 10000 nM.

As for `COc1cc(N2C(=O)c3nc(C)n(C(C)C)c3C2c2ccc(Cl)cc2)cc2c1nnn2C` (stereo not shown) [Example 63], the IC50 came to 21900 nM in test [1], 96.5 nM at BRD3 (His-Brd3(20-477)), 240 nM on BRD2 (His-Brd2(60-472)) and 72 nM on BRD4 (His-Brd4(44-477)). Moreover, the values for the GI50 with THP-1 cells, with MV-4-11 cells and in the test on K-562 cells were 192 nM, 88.2 nM and 458 nM, respectively. Also, the “THP-1 TGI” value in the test on THP-1 cells worked out at 369 nM. Further, the “MV-4-11 TGI” value in the test with MV-4-11 cells was determined as 141 nM. Also, in the test with K-562 cells, the “K-562 TGI” value is greater than 10000 nM.
